Measurements reported in US12617773B2, “Azetidin-3-ylmethanol derivatives as CCR6 receptor modulators” (Idorsia Pharmaceuticals Ltd, priority 2020, dated 2026).

The molecules below were run against T1, human CCR6 (Homo sapiens, UniProt P51684) (assay: FLIPR assay (inhibition of CCL20-induced calcium signal)). Conditions: HEK-293 cells expressing human CCR6; mean values where determined several times; read-out: FLIPR IC50.
T1 construct: expressed in transfected cells; host or cells: HEK-293
T1 sequence (P51684 1-374): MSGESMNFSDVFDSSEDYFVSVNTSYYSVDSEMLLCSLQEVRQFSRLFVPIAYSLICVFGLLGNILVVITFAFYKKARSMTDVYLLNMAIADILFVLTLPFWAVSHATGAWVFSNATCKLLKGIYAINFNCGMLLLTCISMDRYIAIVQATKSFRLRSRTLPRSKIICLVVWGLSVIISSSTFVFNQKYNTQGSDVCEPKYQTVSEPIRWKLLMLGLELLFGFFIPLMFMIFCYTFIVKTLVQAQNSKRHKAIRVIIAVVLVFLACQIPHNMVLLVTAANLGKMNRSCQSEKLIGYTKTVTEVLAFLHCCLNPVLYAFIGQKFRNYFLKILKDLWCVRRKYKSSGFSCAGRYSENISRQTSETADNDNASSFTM
Assay type: cell-based
Description: FLIPR assay: The bioactivity of compounds is tested in a fluorometric imaging plate reader (FLIPR: Molecular Devices) using engineered HEK-293 cells expressing the human CCR6 (GenBank: AY242126). Frozen cells are plated on Poly-L-Lysine precoated 384-well plates 2 days prior to bioassay in DMEM medium supplemented with 10% FCS and 1% Penicillin-Streptomycin. […] This buffer, but lacking the dye, is also used for washing and compound dilution steps (assay buffer). Cells are washed free of excess dye with a wash-station (Biotek), leaving 40 microliter of assay buffer at the end. Cells were incubated for 15 minutes at room temperature in the dark, before adding compounds. Stock solutions of test compounds are made up at a concentration of 10 mM in DMSO, and serially diluted first in DMSO and then transferred in assay buffer to concentrations required for inhibition dose response curves. After a 45-minute incubation period in assay buffer at room temperature, 10 microliters of each compound dilution are transferred from a compound plate to the plate containing the recombinant cells in the FLIPR instrument according to the manufacturer's instructions. After cells and compounds were preincubated for 30 minutes at room temperature in the dark, 10 microliter agonist CCL20 (Peprotech) at a final concentration of 10 nM is added, again using the FLIPR instrument. Changes in fluorescence are monitored before and after addition of the test compounds and agonist. Emission peak values above base level after CCL20 addition are exported after base line subtraction.
The calculated IC50 values may fluctuate depending on the daily assay performance. Fluctuations of this kind are known to those skilled in the art.

Compound | IC50 [nM]
CC(C)c1ccc([C@](O)(c2cncc(N3CC4OCCC4C3=O)c2)C2(C)CN(C)C2)cc1 (mixture of isomers) [Example 210] | 326
CC(=O)N1CC[C@H](c2nc(-c3cncc([C@@](O)(c4ccc(C(C)C)cc4)C4(C)CN(C)C4)c3)no2)[C@H](C)C1 (mixture of isomers) [Example 478, 1-[cis-4-(3-{5-[(R)-(1,3-Dimethyl-azetidin-3-yl)-hydroxy-(4-isopropyl-phenyl)-methyl]-pyridin-3-yl}-[1,2,4]oxadiazol-5-yl)-3-methyl-piperidin-1-yl]-ethanone] | 88.9
CC(C)c1ccc([C@](O)(c2cncc(N3C[C@H](C(C)(C)C)OC3=O)c2)C2(C)CN(C)C2)cc1 (single isomer, unassigned) [Example 167] | 66.9
CC(C)c1ccc([C@](O)(c2cncc([C@@H]3CCC(C)(O)C3)c2)C2(C)CN(C)C2)cc1 (single isomer, unassigned) [Example 297] | 93.5
CC(C)c1ccc([C@](O)(c2cncc(-c3noc(C4(C)CC(=O)N(C)C4)n3)c2)C2(C)CN(C)C2)cc1 (single isomer, unassigned) [Example 365] | 147
CC(C)c1ccc([C@](O)(c2cncc(-c3noc(C4(C)CC(=O)N(C)C4)n3)c2)C2(C)CN(C)C2)cc1 (single isomer, unassigned) [Example 366] | 165
Cc1cc(C(C)(O)C#Cc2cncc([C@@](O)(c3ccc(C(C)C)cc3)C3(C)CN(C)C3)c2)nn1C (single isomer, unassigned) [Example 401] | 117
Cc1cc(C(C)(O)C#Cc2cncc([C@@](O)(c3ccc(C(C)C)cc3)C3(C)CN(C)C3)c2)nn1C (single isomer, unassigned) [Example 402] | 88.3
CC(C)c1ccc([C@](O)(c2cncc(C#CC(C)(O)c3ccn(C)n3)c2)C2(C)CN(C)C2)cc1 (single isomer, unassigned) [Example 404] | 164
CC(C)c1ccc([C@](O)(c2cncc(C#CC(C)(O)c3ccn(C)n3)c2)C2(C)CN(C)C2)cc1 (single isomer, unassigned) [Example 405] | 102
CC(C)c1ccc([C@](O)(c2cncc(-c3noc(C4CC(=O)N(C)C4)n3)c2)C2(C)CN(C)C2)cc1 (single isomer, unassigned) [Example 509] | 208
CCN1CC(c2nc(-c3cncc([C@@](O)(c4ccc(C(C)C)cc4)C4(C)CN(C)C4)c3)no2)CC1=O (single isomer, unassigned) [Example 510] | 184
CCN1CC(c2nc(-c3cncc([C@@](O)(c4ccc(C(C)C)cc4)C4(C)CN(C)C4)c3)no2)CC1=O (single isomer, unassigned) [Example 511] | 133
CC(C)c1ccc([C@](O)(c2cncc(-c3noc(C4CC(=O)N(C(C)C)C4)n3)c2)C2(C)CN(C)C2)cc1 (single isomer, unassigned) [Example 512] | 61.1
CC(C)c1ccc([C@](O)(c2cncc(-c3noc(C4CC(=O)N(C(C)C)C4)n3)c2)C2(C)CN(C)C2)cc1 (single isomer, unassigned) [Example 513] | 101
CC(C)c1ccc([C@](O)(c2cncc(-c3noc(C4CCNC(=O)C4)n3)c2)C2(C)CN(C)C2)cc1 (single isomer, unassigned) [Example 515] | 181
CC(C)c1ccc([C@](O)(c2cncc(-c3noc(C4CCNC(=O)C4)n3)c2)C2(C)CN(C)C2)cc1 (single isomer, unassigned) [Example 516] | 104
COc1cc(C(C)(O)C#Cc2cncc([C@@](O)(c3ccc(C(C)C)cc3)C3(C)CN(C)C3)c2)ncn1 (single isomer, unassigned) [Example 620] | 55.3
COc1cc(C(C)(O)C#Cc2cncc([C@@](O)(c3ccc(C(C)C)cc3)C3(C)CN(C)C3)c2)ncn1 (single isomer, unassigned) [Example 622] | 105
COc1nccc(C(C)(O)C#Cc2cncc([C@@](O)(c3ccc(C(C)C)cc3)C3(C)CN(C)C3)c2)n1 (single isomer, unassigned) [Example 623] | 44.9
COc1nccc(C(C)(O)C#Cc2cncc([C@@](O)(c3ccc(C(C)C)cc3)C3(C)CN(C)C3)c2)n1 (single isomer, unassigned) [Example 624] | 81.8

Compound | IC50 [nM]
Cc1cc(C(C)(O)C#Cc2cncc([C@@](O)(c3ccc(C(C)C)cc3)C3(C)CN(C)C3)c2)nc(C)n1 (single isomer, unassigned) [Example 625] | 107
Cc1cc(C(C)(O)C#Cc2cncc([C@@](O)(c3ccc(C(C)C)cc3)C3(C)CN(C)C3)c2)nc(C)n1 (single isomer, unassigned) [Example 626] | 111
COc1cc(C(C)(O)C#Cc2cncc([C@@](O)(c3ccc(C(C)C)cc3)C3(C)CN(C)C3)c2)nc(OC)n1 (single isomer, unassigned) [Example 627] | 11.5
COc1cc(C(C)(O)C#Cc2cncc([C@@](O)(c3ccc(C(C)C)cc3)C3(C)CN(C)C3)c2)nc(OC)n1 (single isomer, unassigned) [Example 628] | 20.2
COc1nc(C)cc(C(C)(O)C#Cc2cncc([C@@](O)(c3ccc(C(C)C)cc3)C3(C)CN(C)C3)c2)n1 (single isomer, unassigned) [Example 629] | 60.9
COc1cc(C(C)(O)C#Cc2cncc([C@@](O)(c3ccc(C(C)C)cc3)C3(C)CN(C)C3)c2)nc(C)n1 (single isomer, unassigned) [Example 630] | 61.1
COc1cc(C(C)(O)C#Cc2cncc([C@@](O)(c3ccc(C(C)C)cc3)C3(C)CN(C)C3)c2)nc(C)n1 (single isomer, unassigned) [Example 631] | 79.5
CC(C)c1ccc([C@](O)(c2cncc(C#CC(C)(O)c3ccnc(C(F)(F)F)n3)c2)C2(C)CN(C)C2)cc1 (single isomer, unassigned) [Example 652] | 10.9
CC(C)c1ccc([C@](O)(c2cncc(C#CC(C)(O)c3ccnc(C(F)(F)F)n3)c2)C2(C)CN(C)C2)cc1 (single isomer, unassigned) [Example 653] | 10.1
CN1CC(F)(C(O)(c2ccc(OC(F)(F)F)cc2)c2cncc(N3CCCC3)c2)C1 (centres unmarked) [Example 1, (3-Fluoro-1-methyl-azetidin-3-yl)-(5-pyrrolidin-1-yl-pyridin-3-yl)-(4-trifluoromethoxy-phenyl)-methanol] | 114
CN1CC(C#N)(C(O)(c2ccc(OC(F)(F)F)cc2)c2cncc(N3CCCC3)c2)C1 (centres unmarked) [Example 2, 3-[Hydroxy-(5-pyrrolidin-1-yl-pyridin-3-yl)-(4-trifluoromethoxy-phenyl)-methyl]-1-methyl-azetidine-3-carbonitrile] | 147
CCN1CC(C)([C@](O)(c2ccc(OC(F)(F)F)cc2)c2cncc(N3CCCC3)c2)C1 [Example 3, (R)-(1-Ethyl-3-methyl-azetidin-3-yl)-(5-pyrrolidin-1-yl-pyridin-3-yl)-(4-trifluoromethoxy-phenyl)-methanol] | 28
CCCN1CC(C)([C@](O)(c2ccc(OC(F)(F)F)cc2)c2cncc(N3CCCC3)c2)C1 [Example 4] | 36.2
CC(C)N1CC(C)([C@](O)(c2ccc(OC(F)(F)F)cc2)c2cncc(N3CCCC3)c2)C1 [Example 5] | 33.3
CC1([C@](O)(c2ccc(OC(F)(F)F)cc2)c2cncc(N3CCCC3)c2)CN(CC2CC2)C1 [Example 6] | 47.2
CC1([C@](O)(c2ccc(OC(F)(F)F)cc2)c2cncc(N3CCCC3)c2)CN(C2CCC2)C1 [Example 7] | 54.3
CC(C)CN1CC(C)([C@](O)(c2ccc(OC(F)(F)F)cc2)c2cncc(N3CCCC3)c2)C1 [Example 8] | 110
CC1([C@](O)(c2ccc(OC(F)(F)F)cc2)c2cncc(N3CCCC3)c2)CN(C2CC2)C1 [Example 9, (R)-(1-Cyclopropyl-3-methyl-azetidin-3-yl)-(5-pyrrolidin-1-yl-pyridin-3-yl)-(4-trifluoromethoxy-phenyl)-methanol] | 74.7
CC1([C@](O)(c2ccc(OC(F)(F)F)cc2)c2cncc(N3CCCC3)c2)CN(CCF)C1 [Example 10, (R)-[1-(2-Fluoro-ethyl)-3-methyl-azetidin-3-yl]-(5-pyrrolidin-1-yl-pyridin-3-yl)-(4-trifluoromethoxy-phenyl)-methanol] | 64.1
CC1([C@](O)(c2ccc(OC(F)(F)F)cc2)c2cncc(N3CCCC3)c2)CN(CC(F)F)C1 [Example 11, (R)-[1-(2,2-Difluoro-ethyl)-3-methyl-azetidin-3-yl]-(5-pyrrolidin-1-yl-pyridin-3-yl)-(4-trifluoromethoxy-phenyl)-methanol] | 130
